Reference: the supplement of paper PMC10307832

Legend:
Experiment in all cases: relative viability (nuclei count vs DMSO), 5 days (fraction); higher = more cells survive
NCI-H2009 = tested on: NCI-H2009
Procedure, shortened: (§1)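 Relative viability was taken as the ratio of nuclei in treated wells to nuclei in vehicle wells. Lung cancer cell lines in 1536-well plates received compounds by pin tool one day after seeding, either one drug alone or a fixed anchor-drug dose plus five library-drug doses (not always all listed) in √10 steps. Nuclei were counted on 4× images after 5 days of treatment, and values are medians of duplicate plates.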

SK-LU-1 = tested on: SK-LU-1
Procedure, shortened: as §1

NCI-H2228 = tested on: NCI-H2228
Procedure, shortened: as §1

HOP-62 = tested on: HOP-62
Procedure, shortened: as §1

A-427 = tested on: A-427
Procedure, shortened: as §1

NCI-H1975 = tested on: NCI-H1975
Procedure, shortened: as §1

NCI-H1792 = tested on: NCI-H1792
Procedure, shortened: as §1

EMC-BAC-2 = tested on: EMC-BAC-2
Procedure, shortened: as §1

CAL-12T = tested on: CAL-12T
Procedure, shortened: as §1

HARA = tested on: HARA
Procedure, shortened: as §1

HCC-827 = tested on: HCC-827
Procedure, shortened: as §1

NCI-H460 = tested on: NCI-H460
Procedure, shortened: as §1

NCI-H23 = tested on: NCI-H23
Procedure, shortened: as §1

SW 1573 = tested on: SW 1573
Procedure, shortened: as §1

NCI-H1355 = tested on: NCI-H1355
Procedure, shortened: as §1

NCI-H1437 = tested on: NCI-H1437
Procedure, shortened: as §1

NCI-H1915 = tested on: NCI-H1915
Procedure, shortened: as §1

NCI-H727 = tested on: NCI-H727
Procedure, shortened: as §1

HCC-366 = tested on: HCC-366
Procedure, shortened: as §1

NCI-H1755 = tested on: NCI-H1755
Procedure, shortened: as §1

COR-L 105 = tested on: COR-L 105
Procedure, shortened: as §1

LCLC-103H = tested on: LCLC-103H
Procedure, shortened: as §1

Q: Oc1nc(-c2ccc(C(F)(F)F)cc2)nc2c1CSCC2 [XAV939] + C[C@@H](Oc1cc(-c2cnn(C3CCNCC3)c2)cnc1N)c1c(Cl)ccc(F)c1Cl [Crizotinib] (partner 1 µM) was tested. Which relative viability (NCI-H2009; first compound 0.08 µM) did it give?
A: Its relative viability is 1.12.

Q: And the relative viability (NCI-H2009; first compound 0.253 µM)?
A: The relative viability was 1.04.

Q: What about the relative viability (NCI-H2009; first compound 0.8 µM) of the same molecule?
A: Its relative viability is 1.01.

Q: And the relative viability (NCI-H2009; first compound 2.53 µM)?
A: Its relative viability is 0.96.

Q: And the relative viability (SK-LU-1; first compound 0.08 µM)?
A: The relative viability was 0.929.

Q: What about the relative viability (SK-LU-1; first compound 0.253 µM) of the same molecule?
A: Its relative viability is 0.809.

Q: What about the relative viability (SK-LU-1; first compound 0.8 µM) of the same molecule?
A: Its relative viability is 0.936.

Q: What about the relative viability (SK-LU-1; first compound 2.53 µM) of the same molecule?
A: The relative viability was 0.823.

Q: And the relative viability (NCI-H2228; first compound 0.08 µM)?
A: The relative viability was 0.431.

Q: And the relative viability (NCI-H2228; first compound 0.253 µM)?
A: The relative viability was 0.438.

Q: And the relative viability (NCI-H2228; first compound 0.8 µM)?
A: The relative viability was 0.464.

Q: What about the relative viability (NCI-H2228; first compound 2.53 µM) of the same molecule?
A: Its relative viability is 0.398.

Q: What about the relative viability (HOP-62; first compound 0.08 µM) of the same molecule?
A: Its relative viability is 0.972.

Q: What about the relative viability (HOP-62; first compound 0.253 µM) of the same molecule?
A: The relative viability was 0.862.

Q: And the relative viability (HOP-62; first compound 0.8 µM)?
A: Its relative viability is 0.906.

Q: And the relative viability (HOP-62; first compound 2.53 µM)?
A: Its relative viability is 0.727.

Q: What about the relative viability (A-427; first compound 0.08 µM) of the same molecule?
A: The relative viability was 0.918.

Q: And the relative viability (A-427; first compound 0.253 µM)?
A: The relative viability was 0.909.

Q: What about the relative viability (A-427; first compound 0.8 µM) of the same molecule?
A: Its relative viability is 0.794.

Q: And the relative viability (A-427; first compound 2.53 µM)?
A: The relative viability was 0.729.

Q: And the relative viability (NCI-H1975; first compound 0.08 µM)?
A: Its relative viability is 1.07.

Q: What about the relative viability (NCI-H1975; first compound 0.253 µM) of the same molecule?
A: Its relative viability is 0.666.

Q: What about the relative viability (NCI-H1975; first compound 0.8 µM) of the same molecule?
A: Its relative viability is 0.919.

Q: What about the relative viability (NCI-H1975; first compound 2.53 µM) of the same molecule?
A: The relative viability was 0.737.

Q: What about the relative viability (NCI-H1792; first compound 0.08 µM) of the same molecule?
A: Its relative viability is 0.994.

Q: What about the relative viability (NCI-H1792; first compound 0.253 µM) of the same molecule?
A: Its relative viability is 0.896.

Q: And the relative viability (NCI-H1792; first compound 0.8 µM)?
A: Its relative viability is 0.977.

Q: What about the relative viability (NCI-H1792; first compound 2.53 µM) of the same molecule?
A: Its relative viability is 0.902.

Q: What about the relative viability (EMC-BAC-2; first compound 0.08 µM) of the same molecule?
A: The relative viability was 0.821.

Q: And the relative viability (EMC-BAC-2; first compound 0.253 µM)?
A: The relative viability was 0.63.

Q: What about the relative viability (EMC-BAC-2; first compound 0.8 µM) of the same molecule?
A: Its relative viability is 0.623.

Q: What about the relative viability (EMC-BAC-2; first compound 2.53 µM) of the same molecule?
A: The relative viability was 0.438.

Q: What about the relative viability (CAL-12T; first compound 0.08 µM) of the same molecule?
A: Its relative viability is 0.687.

Q: What about the relative viability (CAL-12T; first compound 0.253 µM) of the same molecule?
A: Its relative viability is 0.449.

Q: And the relative viability (CAL-12T; first compound 0.8 µM)?
A: Its relative viability is 0.419.

Q: What about the relative viability (CAL-12T; first compound 2.53 µM) of the same molecule?
A: Its relative viability is 0.56.

Q: And the relative viability (HARA; first compound 0.08 µM)?
A: The relative viability was 1.14.

Q: And the relative viability (HARA; first compound 0.253 µM)?
A: Its relative viability is 0.785.

Q: What about the relative viability (HARA; first compound 0.8 µM) of the same molecule?
A: The relative viability was 1.05.

Q: And the relative viability (HARA; first compound 2.53 µM)?
A: The relative viability was 0.932.

Q: And the relative viability (HCC-827; first compound 0.08 µM)?
A: Its relative viability is 0.897.

Q: And the relative viability (HCC-827; first compound 0.253 µM)?
A: Its relative viability is 0.818.

Q: And the relative viability (HCC-827; first compound 0.8 µM)?
A: The relative viability was 0.887.

Q: What about the relative viability (HCC-827; first compound 2.53 µM) of the same molecule?
A: The relative viability was 0.949.

Q: What about the relative viability (NCI-H460; first compound 0.08 µM) of the same molecule?
A: Its relative viability is 1.44.

Q: What about the relative viability (NCI-H460; first compound 0.253 µM) of the same molecule?
A: The relative viability was 0.879.

Q: And the relative viability (NCI-H460; first compound 0.8 µM)?
A: The relative viability was 0.816.

Q: And the relative viability (NCI-H460; first compound 2.53 µM)?
A: The relative viability was 0.874.

Q: And the relative viability (NCI-H23; first compound 0.08 µM)?
A: Its relative viability is 0.502.

Q: What about the relative viability (NCI-H23; first compound 0.253 µM) of the same molecule?
A: Its relative viability is 0.425.

Q: What about the relative viability (NCI-H23; first compound 0.8 µM) of the same molecule?
A: The relative viability was 0.436.

Q: What about the relative viability (NCI-H23; first compound 2.53 µM) of the same molecule?
A: Its relative viability is 0.426.

Q: What about the relative viability (SW 1573; first compound 0.08 µM) of the same molecule?
A: The relative viability was 0.948.

Q: And the relative viability (SW 1573; first compound 0.253 µM)?
A: Its relative viability is 0.85.

Q: And the relative viability (SW 1573; first compound 0.8 µM)?
A: The relative viability was 0.757.

Q: What about the relative viability (SW 1573; first compound 2.53 µM) of the same molecule?
A: The relative viability was 0.646.

Q: What about the relative viability (NCI-H1355; first compound 0.08 µM) of the same molecule?
A: The relative viability was 1.05.

Q: And the relative viability (NCI-H1355; first compound 0.253 µM)?
A: Its relative viability is 0.9.

Q: And the relative viability (NCI-H1355; first compound 0.8 µM)?
A: Its relative viability is 0.828.

Q: What about the relative viability (NCI-H1355; first compound 2.53 µM) of the same molecule?
A: Its relative viability is 0.725.

Q: What about the relative viability (NCI-H1437; first compound 0.08 µM) of the same molecule?
A: The relative viability was 1.03.

Q: What about the relative viability (NCI-H1437; first compound 0.253 µM) of the same molecule?
A: The relative viability was 0.915.

Q: What about the relative viability (NCI-H1437; first compound 0.8 µM) of the same molecule?
A: The relative viability was 0.947.

Q: And the relative viability (NCI-H1437; first compound 2.53 µM)?
A: Its relative viability is 0.788.

Q: What about the relative viability (NCI-H1915; first compound 0.08 µM) of the same molecule?
A: The relative viability was 0.949.

Q: And the relative viability (NCI-H1915; first compound 0.253 µM)?
A: The relative viability was 0.899.

Q: What about the relative viability (NCI-H1915; first compound 0.8 µM) of the same molecule?
A: The relative viability was 0.891.

Q: And the relative viability (NCI-H1915; first compound 2.53 µM)?
A: Its relative viability is 0.86.

Q: What about the relative viability (NCI-H727; first compound 0.08 µM) of the same molecule?
A: Its relative viability is 0.812.

Q: And the relative viability (NCI-H727; first compound 0.253 µM)?
A: Its relative viability is 0.566.

Q: And the relative viability (NCI-H727; first compound 0.8 µM)?
A: The relative viability was 0.722.

Q: And the relative viability (NCI-H727; first compound 2.53 µM)?
A: The relative viability was 0.765.

Q: And the relative viability (HCC-366; first compound 0.08 µM)?
A: The relative viability was 0.66.

Q: What about the relative viability (HCC-366; first compound 0.253 µM) of the same molecule?
A: Its relative viability is 0.56.

Q: What about the relative viability (HCC-366; first compound 0.8 µM) of the same molecule?
A: Its relative viability is 0.52.

Q: What about the relative viability (HCC-366; first compound 2.53 µM) of the same molecule?
A: Its relative viability is 0.466.

Q: What about the relative viability (NCI-H1755; first compound 0.08 µM) of the same molecule?
A: Its relative viability is 0.832.

Q: What about the relative viability (NCI-H1755; first compound 0.253 µM) of the same molecule?
A: The relative viability was 0.731.

Q: And the relative viability (NCI-H1755; first compound 0.8 µM)?
A: Its relative viability is 0.778.

Q: What about the relative viability (NCI-H1755; first compound 2.53 µM) of the same molecule?
A: The relative viability was 0.762.

Q: And the relative viability (COR-L 105; first compound 0.08 µM)?
A: The relative viability was 0.821.

Q: And the relative viability (COR-L 105; first compound 0.253 µM)?
A: Its relative viability is 0.762.

Q: What about the relative viability (COR-L 105; first compound 0.8 µM) of the same molecule?
A: Its relative viability is 0.698.

Q: What about the relative viability (COR-L 105; first compound 2.53 µM) of the same molecule?
A: Its relative viability is 0.621.

Q: What about the relative viability (LCLC-103H; first compound 0.08 µM) of the same molecule?
A: Its relative viability is 1.07.

Q: What about the relative viability (LCLC-103H; first compound 0.253 µM) of the same molecule?
A: The relative viability was 0.917.

Q: What about the relative viability (LCLC-103H; first compound 0.8 µM) of the same molecule?
A: Its relative viability is 0.984.

Q: What about the relative viability (LCLC-103H; first compound 2.53 µM) of the same molecule?
A: Its relative viability is 0.968.
